These are literature values, as cited in patent publication US20220008839A1, “SEMI-AQUEOUS METHOD FOR EXTRACTING A SUBSTANCE” (Clean Imagineering LLC, priority 2020, published 2022).

As to `CCOC(C)=O` [ethyl acetate], the water solubility (at 20° C.) is 86 mg/mL. As to `C=C(C)[C@@H]1CC[C@]2(CO)CC[C@]3(C)[C@H](CC[C@@H]4[C@@]5(C)CC[C@H](O)C(C)(C)[C@@H]5CC[C@]43C)[C@@H]12` [Betulin], the “solubility in water” value is listed as “insoluble in water”. Besides, where the note is “an alcohol such as ethanol”, the “solubility in ethanol” value is listed as “highly soluble”. Regarding `CC(C)=CCC/C(C)=C/C=C/C(C)=C/C=C/C(C)=C/C=C/C=C(C)/C=C/C=C(C)/C=C/C=C(\C)CCC=C(C)C` [Lycopene], the “solubility in water” value is recorded as “insoluble in water”. Besides, the “solubility in ethyl acetate” value (ethyl acetate) was “freely soluble”.
